The values below come from patent US9822414B2, “In vitro method for predicting in vivo genotoxicity of chemical compounds” (priority 2011, dated 2017).

One data set has as its system rodents. Particulars: cited from earlier work; for In vivo GTX: positive when at least one in vivo assay (MN, CA) positive, equivocal considered positive.
A further data set deals with LOC100505880. Kind of data set: Gene expression of LOC100131914/LOC100505880 in HepG2 cells exposed to compound (microarray, log2 treatment:control ratio). It counts as cell-based, human.
The next data set has as its system PWWP2B. Kind of data set: Gene expression of PWWP2B in HepG2 cells exposed to compound (microarray, log2 treatment:control ratio). It counts as cell-based, human.
The subject of data set [1] is conventional in vitro genotoxicity assays. Particulars: cited from earlier work.
For the next data set, the system named is Salmonella typhimurium. Particulars: cited from earlier work.
Data set [2] concerns HepG2 cell.
The subject of the next data set is NR0B2. Kind of data set: Gene expression of NR0B2 in HepG2 cells exposed to compound (microarray, log2 treatment:control ratio). It counts as cell-based, human.
For data set [3], the system named is HepG2 cell. The data set can be described thus: Class prediction of in vivo genotoxicity by the method of the invention (Ames stratification plus three-gene expression in HepG2). Particulars: for Prediction (class prediction results using the method of the invention): 62 compounds, three replicates, HepG2 24 h.

Each structure is given as a SMILES string. Values joined by “and” are separate entries in the source; they are usually repeats but may differ in a detail not shown here. Equal entries are not always repeated.

Take `ClCc1ccccn1` [2CMP]: the “Standard (in vivo genotoxicity designation)” value (from here on “Standard”) with rodents is on record as “NGTX”. Also, the “LOC100505880 above or below the reference value” with LOC100505880 is given as “− (minus sign indicates a value below the reference value)”. Besides, the “Log2 treatment: control ratio PWWP2B” value in the data set on PWWP2B was −0.214 and −0.23 and −0.031. Further, in data set [1], the “In vitro GTX” value is reported as “+”. In addition, the Ames entry with Salmonella typhimurium is “+”. Moreover, in the data set with HepG2 cell [2], the “At least ⅔ genes +?” value was “NGTX” and the “Average result over three measurements” value is on record as “NGTX”. The “NR0B2 above or below the reference value” in the data set with NR0B2 is on record as “− (minus sign indicates a value below the reference value)”. Further, the “Prediction (class prediction results using the method of the invention)” value (shortened to “Prediction”) with HepG2 cell [3] is reported as “NGTX”.
Consider `COc1cc2c(c3oc(=O)c4c(c13)CCC4=O)[C@@H]1C=CO[C@@H]1O2` [AFB1], for which, in the data set with rodents, the “Standard” value was “GTX” and the “In vivo GTX” value was “+”. The “LOC100505880 above or below the reference value” with LOC100505880 was “+ (Plus sign indicates a value above the reference value)”. Further, in the data set with PWWP2B, the “Log2 treatment: control ratio PWWP2B” value is 0.098 and 0.275 and 0.088; the “PWWP2B above or below the reference value” is “+ (Plus sign indicates a value above the reference value)”. The “In vitro GTX” value in data set [1] is “+”. Moreover, the Ames entry in the data set with Salmonella typhimurium is on record as “+”. Besides, in the data set with HepG2 cell [2], the “At least ⅔ genes +?” value is “GTX” and the “Average result over three measurements” value was “GTX”. Also, in the data set on NR0B2, the “NR0B2 above or below the reference value” was “+ (Plus sign indicates a value above the reference value)”. Besides, the “Prediction” value in the data set with HepG2 cell [3] is reported as “GTX”.
`COc1ccc(N)cc1` [Anis]: the “Standard” value with rodents is “NGTX”. For the same compound, the “LOC100505880 above or below the reference value” in the data set with LOC100505880 is listed as “+ (Plus sign indicates a value above the reference value)”. Also, in the data set on PWWP2B, the “Log2 treatment: control ratio PWWP2B” value is 0.013 and 0.076 and 0.253; the “PWWP2B above or below the reference value” is on record as “+ (Plus sign indicates a value above the reference value)”. Also, in data set [1], the “In vitro GTX” value is recorded as “+”. Besides, the “Results in the conventional in vitro genotoxicity assays” value in data set [1] (see Table 5) was “positive results”. Moreover, the Ames result in the data set with Salmonella typhimurium is “+”. In addition, in the data set with HepG2 cell [2], the “At least ⅔ genes +?” value was “GTX” and the “Average result over three measurements” value is listed as “GTX”. Further, the “NR0B2 above or below the reference value” in the data set on NR0B2 is reported as “+ (Plus sign indicates a value above the reference value)”. Also, in the data set on HepG2 cell [3], the “Prediction” value is given as “GTX”. Moreover, in the data set on HepG2 cell [3] (in vivo NGTX compounds), the “Classification of NGTX compounds by the method of the invention (false positives)” value is recorded as “misclassification”.
For the compound `Cc1c2ccccc2c(C)c2c1ccc1ccccc12` [DMBA], in the data set with rodents, the “Standard” value is on record as “GTX” and the “In vivo GTX” value is listed as “+”. The “Log2 treatment: control ratio LOC100505880” value in the data set with LOC100505880 was 0.08 and −0.059 and −0.025. The “Log2 treatment: control ratio PWWP2B” value in the data set on PWWP2B is −0.155 and 0.088 and −0.102. For the same compound, in data set [1], the “In vitro GTX” value was “+”. For the same compound, the Ames result with Salmonella typhimurium is reported as “+”. The “Average result over three measurements” value with HepG2 cell [2] is recorded as “GTX”. In addition, the “Log2 treatment: control ratio NR0B2” value in the data set on NR0B2 was 0.064 and −0.116 and −0.076. For the same compound, the “Prediction” value in the data set on HepG2 cell [3] is reported as “GTX+”.
In the case of `[NH2][Pt]([NH2])([Cl])[Cl]` [cisPt], in the data set on rodents, the “Standard” value is “GTX” and the “In vivo GTX” value was “+”. Besides, the “LOC100505880 above or below the reference value” in the data set with LOC100505880 is on record as “+ (Plus sign indicates a value above the reference value)”. Besides, the “Log2 treatment: control ratio PWWP2B” value in the data set with PWWP2B was 0.095 and −0.147 and −0.18. The “In vitro GTX” value in data set [1] is given as “+”. Besides, the Ames result in the data set with Salmonella typhimurium is “+”. Besides, in the data set with HepG2 cell [2], the “At least ⅔ genes +?” value is recorded as “GTX” and the “Average result over three measurements” value is on record as “GTX”. Besides, the “NR0B2 above or below the reference value” with NR0B2 is listed as “+ (Plus sign indicates a value above the reference value)”. In the data set with HepG2 cell [3], the “Prediction” value is “GTX”.
